Data: patent US20250049035A1, “MICROBIOCIDAL BICYCLE HETEROCYCLIC DERIVATIVES” (SYNGENTA CROP PROTECTION AG, priority 2021, published 2025)

Columns and labels:
[1] = test system: Glomerella lagenarium (Colletotrichum lagenarium); assay: Glomerella lagenarium (Colletotrichum lagenarium) / liquid culture (anthracnose); type: cell-based; conditions: Colletotrichum orbiculare, liquid culture (potato dextrose broth), growth inhibition photometrically 3-4 days after application, compared to untreated control
Protocol: (§1) Example B3: Glomerella lagenarium (Colletotrichum lagenarium)/Liquid Culture (Anthracnose) Conidia of the fungus from cryogenic storage are directly mixed into a nutrient broth (potato dextrose broth). After placing a DMSO solution of test compound into a microtiter plate (96-well format), the nutrient broth containing the fungal spores is added. The test plates are incubated at 24° C. and the inhibition of growth is measured photometrically 3-4 days after application.

[2] = test system: Mycosphaerella arachidis (Cercospora arachidicola); assay: Mycosphaerella arachidis (Cercospora arachidicola) / liquid culture (early leaf spot); type: cell-based; conditions: liquid culture (potato dextrose broth), growth inhibition photometrically 4-5 days after application, compared to untreated control
Protocol: as §1, with “B10: Mycosphaerella arachidis (Cercospora arachidicola)/Liquid” for “B3: Glomerella lagenarium (Colletotrichum lagenarium)/Liquid”, “(Early Leaf Spot)” for “(Anthracnose)”, “broth)” for “broth).”, “determined” for “measured”, “4-5” for “3-4”

Alternaria solani = Alternaria solani / tomato / leaf disc (early blight); type: in vivo; conditions: foliar, tomato leaf disks cv. Baby, inoculated 2 days after application, assessed 5-7 days after application, compared to untreated control
Protocol: Example B1: Alternaria solani/Tomato/Leaf Disc (Early Blight) Tomato leaf disks cv. Baby are placed on agar in multiwell plates (24-well format) and sprayed with the formulated test compound diluted in water. The leaf disks are inoculated with a spore suspension of the fungus 2 days after application. The inoculated leaf disks are incubated at 23° C./21° C.

[3] = test system: Botryotinia fuckeliana (Botrytis cinerea); assay: Botryotinia fuckeliana (Botrytis cinerea) / liquid culture (gray mould); type: cell-based; conditions: liquid culture (Vogels broth), growth inhibition photometrically 3-4 days after application, compared to untreated control
Protocol: as §1, with “B2: Botryotinia fuckeliana (Botrytis cinerea)/Liquid” for “B3: Glomerella lagenarium (Colletotrichum lagenarium)/Liquid”, “(Gray Mould)” for “(Anthracnose)”, “(Vogels” for “(potato dextrose”, “determined” for “measured”

[4] = test system: Phaeosphaeria nodorum (Septoria nodorum); assay: Phaeosphaeria nodorum (Septoria nodorum) / wheat / leaf disc preventative (glume blotch); type: in vivo; conditions: Parastagonospora nodorum, foliar, wheat leaf segments cv. Kanzler, inoculated 2 days after application, assessed 5-7 days after application, compared to untreated control
Protocol: Example B8: Phaeosphaeria Nodorum (Septoria nodorum)/Wheat/Leaf Disc Preventative (Glume Blotch) Wheat leaf segments cv. Kanzler are placed on agar in a multiwell plate (24-well format) and sprayed with the formulated test compound diluted in water. The leaf disks are inoculated with a spore suspension of the fungus 2 days after application. The inoculated test leaf disks are incubated at 20° C. and 75% relative humidity under a light regime of 12 h light/12 h darkness in a climate cabinet and the activity of a compound is assessed as percent disease control compared to untreated when an appropriate level of disease damage appears in untreated check leaf disks (5-7 days after application).

[5] = test system: Monographella nivalis (Microdochium nivale); assay: Monographella nivalis (Microdochium nivale) / liquid culture (foot rot cereals); type: cell-based; conditions: liquid culture (potato dextrose broth), growth inhibition photometrically 4-5 days after application, compared to untreated control
Protocol: as §1, with “B9: Monographella nivalis (Microdochium nivale)/Liquid” for “B3: Glomerella lagenarium (Colletotrichum lagenarium)/Liquid”, “(Foot Rot Cereals)” for “(Anthracnose)”, “determined” for “measured”, “4-5” for “3-4”

[6] = test system: Mycosphaerella graminicola (Septoria tritici); assay: Mycosphaerella graminicola (Septoria tritici) / liquid culture (Septoria blotch); type: cell-based; conditions: Zymoseptoria tritici, liquid culture (potato dextrose broth), growth inhibition photometrically 4-5 days after application, compared to untreated control
Protocol: as §1, with “B15: Mycosphaerella graminicola (Septoria tritici/Liquid” for “B3: Glomerella lagenarium (Colletotrichum lagenarium)/Liquid”, “(Septoria Blotch)” for “(Anthracnose)”, “determined” for “measured”, “4-5” for “3-4”

Pyrenophora teres = Pyrenophora teres / barley / leaf disc preventative (net blotch); type: in vivo; conditions: foliar, barley leaf segments cv. Hasso, inoculated 2 days after application, assessed 5-7 days after application, compared to untreated control
Protocol: Example B12: Pyrenophora teres/Barley/Leaf Disc Preventative (Net Blotch) Barley leaf segments cv. Hasso are placed on agar in a multiwell plate (24-well format) and sprayed with the formulated test compound diluted in water. The leaf segments are inoculated with a spore suspension of the fungus 2 days after application. The inoculated leaf segments are incubated at 20° C. and 65% relative humidity under a light regime of 12 h light/12 h darkness in a climate cabinet and the activity of a compound is assessed as disease control compared to untreated when an appropriate level of disease damage appears in untreated check leaf segments (5-7 days after application).

C[C@@H]1c2sccc2[C@](C)(c2cnn(C)c2)CN1C(=O)c1nnc(-c2ccc(F)cc2F)s1 [Compound P-5, [5-(2,4-difluorophenyl)-1,3,4-thiadiazol-2-yl]-[(4S,7R)-4,7-dimethyl-4-(1-methylpyrazol-4-yl)-5,7-dihydrothieno[2,3-c]pyridin-6-yl]methanone]
≥ 80%: inhibition of growth at 20 ppm [1] | inhibition of growth at 20 ppm [2]

Cn1cc(C2CN(C(=O)c3cc(-c4ccc(F)cc4F)on3)Cc3cscc32)cn1 (centres unmarked) [Compound P-29]
≥ 80%: pest or weed control at 200 ppm (Alternaria solani) | inhibition of growth at 20 ppm [3] | inhibition of growth at 20 ppm [1] | pest or weed control at 200 ppm [4] | inhibition of growth at 20 ppm [5] | inhibition of growth at 20 ppm [2] | inhibition of growth at 20 ppm [6]

C[C@@H]1c2sccc2[C@H](c2cnn(C)c2)CN1C(=O)c1nnc(-c2ccc(F)cc2F)s1 [Compound P-1, [5-(2,4-difluorophenyl)-1,3,4-thiadiazol-2-yl]-[(4S,7R)-7-methyl-4-(1-methylpyrazol-4-yl)-5,7-dihydro-4H-thieno[2,3-c]pyridin-6-yl]methanone]
≥ 80%: inhibition of growth at 20 ppm [5] | inhibition of growth at 20 ppm [6]

Cn1cc(C2(C)CN(C(=O)c3nnc(-c4ccc(F)cc4F)s3)Cc3ccsc32)cn1 (centres unmarked) [Compound P-22, [5-(2,4-difluorophenyl)-1,3,4-thiadiazol-2-yl]-[7-methyl-7-(1-methylpyrazol-4-yl)-4,6-dihydrothieno[3,2-c]pyridin-5-yl]methanone]
≥ 80%: inhibition of growth at 20 ppm [3] | inhibition of growth at 20 ppm [1] | pest or weed control at 200 ppm [4] | inhibition of growth at 20 ppm [5] | inhibition of growth at 20 ppm [2] | pest or weed control at 200 ppm (Pyrenophora teres) | inhibition of growth at 20 ppm [6]

Cc1nn(C)c(C)c1C1CN(C(=O)c2cc(-c3ccc(F)cc3F)on2)Cc2ccsc21 (centres unmarked) [Compound P-37, [5-(2,4-difluorophenyl)isoxazol-3-yl]-[7-(1,3,5-trimethylpyrazol-4-yl)-6,7-dihydro-4H-thieno[3,2-c]pyridin-5-yl]methanone]
≥ 80%: pest or weed control at 200 ppm (Alternaria solani) | inhibition of growth at 20 ppm [5] | inhibition of growth at 20 ppm [2] | inhibition of growth at 20 ppm [6]

Cc1c(C2CN(C(=O)c3cc(-c4ccccc4F)on3)Cc3sccc32)cnn1C (centres unmarked) [Compound P-31, [4-(1,5-dimethylpyrazol-4-yl)-5,7-dihydro-4H-thieno[2,3-c]pyridin-6-yl]-[5-(2-fluorophenyl)isoxazol-3-yl]methanone]
≥ 80%: pest or weed control at 200 ppm (Alternaria solani) | inhibition of growth at 20 ppm [3] | inhibition of growth at 20 ppm [1] | pest or weed control at 200 ppm [4] | inhibition of growth at 20 ppm [5] | inhibition of growth at 20 ppm [2] | pest or weed control at 200 ppm (Pyrenophora teres) | inhibition of growth at 20 ppm [6]

Cc1c([C@@H]2CN(C(=O)c3cc(-c4ccc(F)cc4F)on3)Cc3ccsc32)cnn1C [Compound P-4, [5-(2,4-difluorophenyl)isoxazol-3-yl]-[(7R)-7-(1,5-dimethylpyrazol-4-yl)-6,7-dihydro-4H-thieno[3,2-c]pyridin-5-yl]methanone]
≥ 80%: pest or weed control at 200 ppm (Alternaria solani) | inhibition of growth at 20 ppm [1] | pest or weed control at 200 ppm [4] | inhibition of growth at 20 ppm [5] | pest or weed control at 200 ppm (Pyrenophora teres) | inhibition of growth at 20 ppm [6]

Cn1cc(C2CN(C(=O)c3cc(-c4ccc(F)cc4F)on3)Cc3sncc32)cn1 (centres unmarked) [Compound P-26, [5-(2,4-difluorophenyl)isoxazol-3-yl]-[4-(1-methylpyrazol-4-yl)-5,7-dihydro-4H-isothiazolo[5,4-c]pyridin-6-yl]methanone]
≥ 80%: pest or weed control at 200 ppm (Alternaria solani) | inhibition of growth at 20 ppm [3] | inhibition of growth at 20 ppm [1] | pest or weed control at 200 ppm [4] | inhibition of growth at 20 ppm [5] | inhibition of growth at 20 ppm [6]

C[C@@H]1c2sccc2[C@@H](c2cnn(C)c2)CN1C(=O)c1nnc(-c2ccc(F)cc2F)s1 (racemic) [Compound P-16, [5-(2,4-difluorophenyl)-1,3,4-thiadiazol-2-yl]-[rac-(4R,7R)-7-methyl-4-(1-methylpyrazol-4-yl)-5,7-dihydro-4H-thieno[2,3-c]pyridin-6-yl]methanone]
≥ 80%: inhibition of growth at 20 ppm [6]

Cc1c(C2CN(C(=O)c3cc(-c4ccc(F)cc4F)on3)Cc3ncsc32)cnn1C (centres unmarked) [Compound P-28, [5-(2,4-difluorophenyl)isoxazol-3-yl]-[7-(1,5-dimethylpyrazol-4-yl)-6,7-dihydro-4H-thiazolo[4,5-c]pyridin-5-yl]methanone]
≥ 80%: pest or weed control at 200 ppm (Alternaria solani) | inhibition of growth at 20 ppm [1] | pest or weed control at 200 ppm [4] | inhibition of growth at 20 ppm [5] | inhibition of growth at 20 ppm [2] | pest or weed control at 200 ppm (Pyrenophora teres) | inhibition of growth at 20 ppm [6]

CC1c2ccsc2C(C)(c2cnn(C)c2)CN1C(=O)c1cc(-c2ccc(F)cc2F)on1 (centres unmarked) [Compound P-20, [5-(2,4-difluorophenyl)isoxazol-3-yl]-[4,7-dimethyl-7-(1-methylpyrazol-4-yl)-4,6-dihydrothieno[3,2-c]pyridin-5-yl]methanone]
≥ 80%: pest or weed control at 200 ppm (Alternaria solani) | inhibition of growth at 20 ppm [3] | inhibition of growth at 20 ppm [1] | pest or weed control at 200 ppm [4] | inhibition of growth at 20 ppm [2] | inhibition of growth at 20 ppm [6]

C[C@H]1c2ccsc2[C@@](C)(c2cnn(C)c2)CN1C(=O)c1nnc(-c2ccc(F)cc2F)s1 (racemic) [Compound P-8, [5-(2,4-difluorophenyl)-1,3,4-thiadiazol-2-yl]-[rac-(4R,7R)-4,7-dimethyl-7-(1-methylpyrazol-4-yl)-4,6-dihydrothieno[3,2-c]pyridin-5-yl]methanone]
≥ 80%: pest or weed control at 200 ppm (Alternaria solani) | inhibition of growth at 20 ppm [3] | inhibition of growth at 20 ppm [1] | inhibition of growth at 20 ppm [5] | inhibition of growth at 20 ppm [2] | pest or weed control at 200 ppm (Pyrenophora teres) | inhibition of growth at 20 ppm [6]

Cc1nn(C)c(C)c1C1CN(C(=O)c2cc(-c3ccc(F)cc3F)on2)Cc2sccc21 (centres unmarked) [Compound P-36, [5-(2,4-difluorophenyl)isoxazol-3-yl]-[4-(1,3,5-trimethylpyrazol-4-yl)-5,7-dihydro-4H-thieno[2,3-c]pyridin-6-yl]methanone]
≥ 80%: pest or weed control at 200 ppm (Alternaria solani) | inhibition of growth at 20 ppm [3] | inhibition of growth at 20 ppm [1] | inhibition of growth at 20 ppm [5] | inhibition of growth at 20 ppm [2] | pest or weed control at 200 ppm (Pyrenophora teres) | inhibition of growth at 20 ppm [6]

Cn1cc(C2CN(C(=O)c3cc(-c4ccc(F)cc4F)on3)Cc3cnsc32)cn1 (centres unmarked) [Compound P-23, [5-(2,4-difluorophenyl)isoxazol-3-yl]-[7-(1-methylpyrazol-4-yl)-6,7-dihydro-4H-isothiazolo[4,5-c]pyridin-5-yl]methanone]
≥ 80%: pest or weed control at 200 ppm (Alternaria solani) | inhibition of growth at 20 ppm [1] | inhibition of growth at 20 ppm [5] | inhibition of growth at 20 ppm [6]
